{"source": "patent US11034993B2", "about": "“Assay to measure factor Xa inhibitors” (McMaster University, priority 2018, dated 2021)", "type_in_all_cases": "biochemical", "key": {"FXa [1]": {"target": "T1, FXa (Homo sapiens, UniProt P00742)", "assay": "Flu-II cleavage by residual FXa in individual plasma samples", "settings": "citrated plasma from four individuals; rivaroxaban 0 to 5 nM, apixaban 0 to 10 nM"}, "FXa [2]": {"target": "T1, FXa", "assay": "Rate of Flu-II cleavage by residual FXa in normal human pooled plasma", "settings": "rivaroxaban 0 to 5 nM, apixaban 0 to 10 nM, 0.1 nM FXa mixture"}, "FXa [3]": {"target": "T1, FXa", "assay": "Flu-II cleavage by residual FXa in whole blood", "settings": "citrated whole blood, 0 to 100 nM in blood (2 nM final, 50-fold dilution)", "description": "To test whether Flu-II cleavage by residual FXa can be measured in whole blood, citrated blood was collected to be used in the assay. […] A mixture (50 μL) containing 2 μL of whole blood containing varying levels of the DOACs (0 to 100 nM), 0.4 μM Flu-II, and 2 μM hirudin was monitored with FlexStation 3 fluorescent plate reader as described above. Again after one minute of equilibration, 50 μL of a mixture containing 0.1 nM FXa, 10 nM FVa, 50 μM PCPS, and 20 mM CaCl2 was added and mixed by instrument trituration. The initial rates of fluorescence change was then measured and plotted with respect to the final DOAC concentration in the reaction mixture, which results in a 1:50 dilution."}, "FXa [4]": {"target": "T1, FXa", "assay": "Flu-II cleavage by residual FXa in plasma with LMWH", "settings": "normal human pooled plasma, LMWH 0 to 1 unit/mL final"}}, "data": [{"compound": "O=C(NC[C@H]1CN(c2ccc(N3CCOCC3=O)cc2)C(=O)O1)c1ccc(Cl)s1", "note": "[rivaroxaban]", "values": [{"measurement": "maximal inhibition of total FXa activity", "setting": "FXa [1]", "result": "~80", "unit": "%"}, {"measurement": "overall inhibition of total activity (rate of Flu-II cleavage)", "setting": "FXa [2]", "result": "~85", "unit": "%"}, {"measurement": "maximal inhibition (initial rate of Flu-II cleavage)", "setting": "FXa [3]", "result": "~50", "unit": "%"}]}, {"compound": "dalteparin", "values": [{"measurement": "response of rate of Flu-II cleavage to levels of LMWH", "setting": "FXa [4]", "result": "sensitive to the levels of LMWH"}]}]}
